The values that follow come from US8288548B2, “Oxazolo[5-4-b]pyridin-5-yl compounds” (Eli Lilly and Company, priority 2010, dated 2012).

Where “and” joins values, the source holds several entries; their conditions need not be identical. Identical values can stand only once.

For the test, the system named is p38 MAP kinase. As to the kind of experiment: In vivo target inhibition (IVTI) of p38 MAP kinase in naïve C57BL/6 mice (p-MAPKAPK2 in PBMCs, flow cytometry). Particulars: 2 hours post-dose. As to the method:
IVTI of p38 MAP kinase is measured in peripheral blood mononuclear cells (PBMCs) of mice dosed orally with test compound using a flow cytometry assay for p-MAPKAPK2, a p38 MAP kinase substrate.
Male C57BL/6 mice (6-8 weeks old) are randomized into groups of 4. Test compound is administered by oral gavage in a 0.1 mL volume of vehicle (1% hydroxyethyl cellulose (HEC), 0.25% TWEEN® 80, 0.05% antifoam). Control animals are administered 0.1 mL vehicle with no test compound. For single dose and dose response studies, animals are sacrificed 2 hour post-dose. For time-course studies, animals are sacrificed at different time-points post-dose, typically, 1, 2, 4, 6, 18 and 24 hours. Whole blood is collected in EDTA-coated tubes (AQUISEL).
100 μL mouse whole blood is added into each EDTA tube and incubated at 37° C. for 10 minutes. […]
Samples are incubated at RT for 30 minutes. […] Samples are analyzed by flow cytometry (FACScaliber, BD). After defining the viable single cell population by side and forward scatter, the level of p-MAPKAPK2 is measured in the monocyte population defined (gated) by CD11b^hiLy6G^−.
The median fluorescence intensity in the monocyte cells is analyzed to determine the level of p-MAPKAPK2. […] Percent inhibition by test compound is determined by using the following equation: […]

For the compound `COCC[C@H](C)Nc1nc2ccc(-c3nc(C(C)(C)CO)[nH]c3-c3ccc(F)cc3F)nc2o1` [Example 1, 2-[5-(2,4-Difluorophenyl)-4-[2-[[(1S)-3-methoxy-1-methyl-propyl]amino]oxazolo[5,4-b]pyridin-5-yl]-1H-imidazol-2-yl]-2-methyl-propan-1-ol], the “Threshold Efficacious Dose for 70% inhibition (TED70)” value (oral, PBMCs) turned out to be 5.1 mg/kg. In addition, the “Threshold Efficacious Concentration for 70% inhibition (TEC70)” value (plasma) was 39.4 ng/mL and 0.084 μM.
